{"source": "ChEMBL document CHEMBL4699511", "about": "“Cedrol, a Sesquiterpene Alcohol, Enhances the Anticancer Efficacy of Temozolomide in Attenuating Drug Resistance via Regulation of the DNA Damage Response and MGMT Expression” (J Nat Prod, 2020)", "key": {"[1]": {"test_system": "RG2", "assay": "Inhibition of JNK phosphorylation at Thr183/Tyr185 residues in rat RG2 cells at 112.4uM after 48 hrs by Western blot analysis (reference value: 1)", "format": "cell-based"}, "[2]": {"assay": "Synergistic cytotoxicity against rat CTX TNA2 cells assessed as combination index at 112.4 uM after 48 hrs in presence of 309 uM TMZ by MTT assay", "format": "cell-based", "conditions": "ctx tna2, 48 h"}, "[3]": {"test_system": "DBTRG-05MG", "assay": "Synergistic cytotoxicity against human DBTRG-05MG cells assessed as combination index at 112.4 uM after 48 hrs in presence of 103 uM TMZ by MTT assay", "format": "functional"}, "[4]": {"test_system": "DBTRG-05MG", "assay": "Potentiation of TMZ-induced antitumor activity against human DBTRG-05MG cells xenografted in BALB/c nude mouse assessed as reduction in MGMT expression at 75 mg/kg, sc co-treated with TMZ for 18 days by fluorescent immunocytochemistry method", "format": "functional, organism-based", "conditions": "time 18.0 day"}, "[5]": {"test_system": "DBTRG-05MG", "assay": "Synergistic cytotoxicity against human DBTRG-05MG cells assessed as combination index at 112.4 uM after 48 hrs in presence of 206 uM TMZ by MTT assay", "format": "functional"}, "[6]": {"test_system": "DBTRG-05MG", "assay": "Induction of apoptosis in human DBTRG-05MG cells assessed as Bcl2 expression at 112.4 uM after 48 hrs by Western blot analysis (reference value: 1)", "format": "functional"}, "[7]": {"assay": "Effect on JNK expression in rat RG2 cells at 112.4uM after 48 hrs in presence of TMZ by Western blot analysis (reference value: 1)", "format": "functional"}, "[8]": {"assay": "Effect on JNK expression in human DBTRG-05MG cells at 112.4uM after 48 hrs by Western blot analysis (reference value: 1)", "format": "functional"}, "[9]": {"assay": "Effect of MDR1 expression in human DBTRG-05MG cells at 112.4 uM after 48 hrs by Western blot analysis", "format": "functional"}, "[10]": {"test_system": "RG2", "assay": "Synergistic cytotoxicity against rat RG2 cells assessed as synergistic effect index at 89.9 uM after 48 hrs in presence of 412.1 uM TMZ by MTT assay", "format": "functional"}, "[11]": {"test_system": "DBTRG-05MG", "assay": "Inhibition of JNK phosphorylation at Thr183/Tyr185 residues in human DBTRG-05MG cells at 112.4uM after 48 hrs in presence of TMZ by Western blot analysis (reference value: 1)", "format": "cell-based"}, "[12]": {"test_system": "DBTRG-05MG", "assay": "Induction of cell cycle arrest in human DBTRG-05MG cells assessed as p53 expression at 112.4 uM after 48 hrs by Western blot analysis (reference value: 1)", "format": "functional"}, "[13]": {"assay": "Effect of CD133 expression in rat RG2 cells at 112.4 uM after 48 hrs by Western blot analysis", "format": "functional"}, "[14]": {"test_system": "DBTRG-05MG", "assay": "Synergistic cytotoxicity against human DBTRG-05MG cells assessed as synergistic effect index at 89.9 uM after 48 hrs in presence of 206 uM TMZ by MTT assay", "format": "functional"}, "[15]": {"test_system": "RG2", "assay": "Synergistic cytotoxicity against rat RG2 cells assessed as combination index at 112.4 uM after 48 hrs in presence of 206 uM TMZ by MTT assay", "format": "functional"}, "[16]": {"assay": "Inhibition of TMZ-induced drug resistance in human DBTRG-05MG cells assessed as MGMT expression at 112.4 uM after 48 hrs by Western blot analysis (reference value: 1.3)", "format": "functional"}, "[17]": {"test_system": "DBTRG-05MG", "assay": "Induction of cell cycle arrest in human DBTRG-05MG cells assessed as accumulation at G0/G1 phase at 112.4 uM after 24 hrs in presence of TMZ by propidium iodide staining based flow cytometric analysis (reference value: 47.16 +/- 1.55%)", "format": "functional"}, "[18]": {"test_system": "DBTRG-05MG", "assay": "Induction of apoptosis in human DBTRG-05MG cells assessed as increase in chromatin condensation at 112.4 uM after 48 hrs in presence of TMZ by TUNEL assay", "format": "functional, cell-based"}, "[19]": {"test_system": "DBTRG-05MG", "assay": "Induction of cell cycle arrest in human DBTRG-05MG cells assessed as accumulation at S phase at 112.4 uM after 12 hrs by propidium iodide staining based flow cytometric analysis (reference value: 22.76 +/- 1.56%)", "format": "functional"}, "[20]": {"test_system": "RG2", "assay": "Induction of cell cycle arrest in rat RG2 cells assessed as accumulation at G0/G1 phase at 112.4 uM after 12 hrs by propidium iodide staining based flow cytometric analysis (reference value: 57.81 +/- 1.9%)", "format": "functional"}, "[21]": {"assay": "Synergistic cytotoxicity against rat CTX TNA2 cells assessed as synergistic effect index at 134.9 uM after 48 hrs in presence of 103 uM TMZ by MTT assay", "format": "cell-based", "conditions": "ctx tna2, 48 h"}, "[22]": {"assay": "Synergistic cytotoxicity against rat CTX TNA2 cells assessed as synergistic effect index at 112.4 uM after 48 hrs in presence of 412.1 uM TMZ by MTT assay", "format": "cell-based", "conditions": "ctx tna2, 48 h"}, "[23]": {"test_system": "DBTRG-05MG", "assay": "Synergistic cytotoxicity against human DBTRG-05MG cells assessed as synergistic effect index at 89.9 uM after 48 hrs in presence of 412.1 uM TMZ by MTT assay", "format": "functional"}, "[24]": {"test_system": "RG2", "assay": "Induction of cell cycle arrest in rat RG2 cells assessed as accumulation at G0/G1 phase at 112.4 uM after 48 hrs in presence of TMZ by propidium iodide staining based flow cytometric analysis (reference value: 57.81 +/- 1.9%)", "format": "functional"}, "[25]": {"test_system": "DBTRG-05MG", "assay": "Induction of cell cycle arrest in human DBTRG-05MG cells assessed as accumulation at G2/M phase at 112.4 uM after 12 hrs in presence of TMZ by propidium iodide staining based flow cytometric analysis (reference value: 30.08 +/- 0.1%)", "format": "functional"}, "[26]": {"test_system": "DBTRG-05MG", "assay": "Induction of cell cycle arrest in human DBTRG-05MG cells assessed as accumulation at G0/G1 phase at 206 uM after 24 hrs by propidium iodide staining based flow cytometric analysis (reference value: 47.16 +/- 1.55%)", "format": "functional"}, "[27]": {"test_system": "RG2", "assay": "Induction of cell cycle arrest in rat RG2 cells assessed as accumulation at G0/G1 phase at 206 uM after 6 hrs by propidium iodide staining based flow cytometric analysis (reference value: 57.81 +/- 1.9%)", "format": "functional"}, "[28]": {"test_system": "DBTRG-05MG", "assay": "Antitumour activity against human DBTRG-05MG cells xenografted in BALB/c nude mouse assessed as reduction in tumour growth at 5 mg/kg, ip for 5 days and measured every 2 days", "format": "functional, organism-based", "conditions": "time 5.0 day"}, "[29]": {"test_system": "RG2", "assay": "Induction of cell cycle arrest in rat RG2 cells assessed as accumulation at G0/G1 phase at 206 uM after 12 hrs by propidium iodide staining based flow cytometric analysis (reference value: 57.81 +/- 1.9%)", "format": "functional"}, "[30]": {"test_system": "RG2", "assay": "Induction of cell cycle arrest in rat RG2 cells assessed as accumulation at G2/M phase at 206 uM after 6 hrs by propidium iodide staining based flow cytometric analysis (reference value: 20.04 +/- 0.55%)", "format": "functional"}, "[31]": {"test_system": "DBTRG-05MG", "assay": "Induction of apoptosis in human DBTRG-05MG cells assessed as cleaved PARP expression at 206 uM after 48 hrs by Western blot analysis (reference value: 1)", "format": "functional"}, "[32]": {"test_system": "RG2", "assay": "Induction of cell cycle arrest in rat RG2 cells assessed as accumulation at S phase at 206 uM after 48 hrs by propidium iodide staining based flow cytometric analysis (reference value: 20.15 +/- 2.44%)", "format": "functional"}, "[33]": {"test_system": "DBTRG-05MG", "assay": "Induction of apoptosis in human DBTRG-05MG cells assessed as phosphorylated PARP expression at 206 uM after 48 hrs by Western blot analysis (reference value: 1)", "format": "functional"}}, "note": "Active and inactive are the calls of the source. The rule behind the calls is not given here.", "data": [{"smiles": "C[C@@H]1CC[C@H]2C(C)(C)[C@H]3C[C@@]12CC[C@@]3(C)O", "note": "[CEDROL]", "values": [{"measurement": "fold change (FC)", "setting": "[1]", "result": 0.7}, {"measurement": "CI", "setting": "[2]", "result": 1.09}, {"measurement": "CI", "setting": "[3]", "result": 0.56}, {"measurement": "Activity", "setting": "[4]", "result": "Active"}, {"measurement": "CI", "setting": "[5]", "result": 0.5}, {"measurement": "fold change (FC)", "setting": "[6]", "result": 1.3}, {"measurement": "fold change (FC)", "setting": "[7]", "result": 0.5}, {"measurement": "fold change (FC)", "setting": "[8]", "result": 0.8}, {"measurement": "fold change (FC)", "setting": "[9]", "result": 1.2}, {"measurement": "Activity_index", "setting": "[10]", "result": 0.66}, {"measurement": "fold change (FC)", "setting": "[11]", "result": 0.8}, {"measurement": "fold change (FC)", "setting": "[12]", "result": 0.9}, {"measurement": "fold change (FC)", "setting": "[13]", "result": 1}, {"measurement": "Activity_index", "setting": "[14]", "result": 0.72}, {"measurement": "CI", "setting": "[15]", "result": 0.79}, {"measurement": "fold change (FC)", "setting": "[16]", "result": 0.8}, {"measurement": "Activity", "setting": "[17]", "result": 48.93, "unit": "%"}, {"measurement": "Activity", "setting": "[18]", "result": "Active"}, {"measurement": "Activity", "setting": "[19]", "result": 14.32, "unit": "%"}, {"measurement": "Activity", "setting": "[20]", "result": 64.98, "unit": "%"}, {"measurement": "Activity_index", "setting": "[21]", "result": 0.28}, {"measurement": "Activity_index", "setting": "[22]", "result": 0.58}, {"measurement": "Activity_index", "setting": "[23]", "result": 0.76}, {"measurement": "Activity", "setting": "[24]", "result": 44, "unit": "%"}, {"measurement": "Activity", "setting": "[25]", "result": 33.68, "unit": "%"}]}, {"smiles": "Cn1nnc2c(C(N)=O)ncn2c1=O", "note": "[TEMOZOLOMIDE]", "values": [{"measurement": "Activity", "setting": "[26]", "result": 31.03, "unit": "%"}, {"measurement": "Activity", "setting": "[27]", "result": 54.73, "unit": "%"}, {"measurement": "Activity", "setting": "[28]", "result": "Active"}, {"measurement": "Activity", "setting": "[29]", "result": 49.55, "unit": "%"}, {"measurement": "Activity", "setting": "[30]", "result": 20.81, "unit": "%"}, {"measurement": "fold change (FC)", "setting": "[31]", "result": 1.4}, {"measurement": "Activity", "setting": "[32]", "result": 18.32, "unit": "%"}, {"measurement": "fold change (FC)", "setting": "[33]", "result": 0.4}]}]}
